Data from paper PMC4893628, “Chalcone-based Selective Inhibitors of a C4 Plant Key Enzyme as Novel Potential Herbicides” (Scientific Reports, 2016).
Like-named read-outs stand apart in the source and are kept apart here.

Columns and labels:
Type in all cases: cell-based
[1] = system: Corynebacterium glutamicum ATCC13032; assay: Bacterial growth in microscale cultivation, C. glutamicum; settings: for activity at 55 µM / activity at 110 µM / activity at 550 µM: Corynebacterium glutamicum; for activity at 55 µM / activity at 110 µM / activity at 550 µM / Lag Phase: relative to control
Outline: (§1)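 In a BioLector microscale system shaken at 1200 rpm, growth was tracked by backscatter at 620 nm, and final signal, growth rate (h⁻¹) and lag-phase length were scored against DMSO-only controls. Starting OD600 was 0.5, or 0.25 for B. subtilis. Inhibitors came from DMSO stocks, with trans-chalcone capped at 400 μM and 2'-hydroxychalcone at 100 μM.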

[2] = system: Escherichia coli K-12 MG1655; assay: Bacterial growth in microscale cultivation, E. coli; settings: relative to control; for activity at 55 µM / activity at 550 µM: Escherichia coli
Outline: as §1

[3] = system: Pseudomonas putida KT2440; assay: Bacterial growth in microscale cultivation, P. putida; settings: relative to control; for activity at 55 µM / activity at 550 µM: Pseudomonas putida
Outline: as §1

Bacillus subtilis 168 = assay: Bacterial growth in microscale cultivation, B. subtilis; settings: for activity at 55 µM / activity at 110 µM / activity at 550 µM / Lag Phase: relative to control; for Influence on bacterial growth: highest concentration tested (10× IC50) if not stated otherwise
Outline: as §1

In the case of O=C(/C=C/c1ccccc1)c1cc(O)ccc1O [Compound 5, 2′,5′-Dihydroxychalcone], the growth ([1]; 550 μM, minimal media) is reported as “abolished growth”, the activity at 55 µM ([1]; ATCC13032, complex medium, 55 µM, read-out: Final Backscatter) is reported as 106% and the activity at 55 µM ([1]; ATCC13032, complex medium, 55 µM, read-out: Growth rate) is reported as 107%. It also gave an activity at 110 µM ([1]; ATCC13032, complex medium, 110 µM, read-out: Final Backscatter) of 103%, an activity at 110 µM ([1]; ATCC13032, complex medium, 110 µM, read-out: Growth rate) of 110% and an activity at 550 µM ([1]; ATCC13032, complex medium, 550 µM, read-out: Final Backscatter) of 118%. For the same compound, the activity at 550 µM ([1]; ATCC13032, complex medium, 550 µM, read-out: Growth rate) was 79%, the activity at 55 µM ([1]; ATCC13032, minimal medium, 55 µM, read-out: Final Backscatter) was 99.7% and the activity at 55 µM ([1]; ATCC13032, minimal medium, 55 µM, read-out: Growth rate) was 86.9%. For the same compound, the activity at 110 µM ([1]; ATCC13032, minimal medium, 110 µM, read-out: Final Backscatter) was 101%, the activity at 110 µM ([1]; ATCC13032, minimal medium, 110 µM, read-out: Growth rate) was 79.5% and the activity at 550 µM ([1]; ATCC13032, minimal medium, 550 µM, read-out: Final Backscatter) was 18.8%. The “Influence on bacterial growth” value ([1]; Minimal medium, highest concentration tested (10× IC50) if not stated otherwise) was “μ↓ (≥IC50), no growth (10× IC50)”, the “Lag Phase” value ([1]; complex medium, 55 µM) was 96,2% and the “Lag Phase” value ([1]; complex medium, 110 µM) was 98,4%. The “Lag Phase” value ([1]; complex medium, 550 µM) was 120,7%, the “Lag Phase” value ([1]; minimal medium, 55 µM) was 114,0% and the “Lag Phase” value ([1]; minimal medium, 110 µM) was 133,1%. It also gave an activity at 55 µM ([2]; MG1655, complex medium, 55 µM, read-out: Final Backscatter) of 101%, an activity at 55 µM ([2]; MG1655, complex medium, 55 µM, read-out: Growth rate) of 103% and an activity at 550 µM ([2]; MG1655, complex medium, 550 µM, read-out: Final Backscatter) of 103%. It also gave an activity at 55 µM ([2]; MG1655, minimal medium, 55 µM, read-out: Final Backscatter) of 99.1%, an activity at 55 µM ([2]; MG1655, minimal medium, 55 µM, read-out: Growth rate) of 122% and an activity at 550 µM ([2]; MG1655, minimal medium, 550 µM, read-out: Final Backscatter) of 96.4%. The “Lag Phase” value ([2]; complex medium, 55 µM) was 103,1%, the “Lag Phase” value ([2]; complex medium, 550 µM) was 117,2% and the “Lag Phase” value ([2]; minimal medium, 55 µM) was 105,9%. For the same compound, the “Lag Phase” value ([2]; minimal medium, 550 µM) was 103,0%, the activity at 55 µM ([3]; KT2440, complex medium, 55 µM, read-out: Final Backscatter) was 98.5% and the activity at 55 µM ([3]; KT2440, complex medium, 55 µM, read-out: Growth rate) was 105%. For the same compound, the activity at 550 µM ([3]; KT2440, complex medium, 550 µM, read-out: Final Backscatter) was 94.4%, the activity at 550 µM ([3]; KT2440, complex medium, 550 µM, read-out: Growth rate) was 118% and the activity at 55 µM ([3]; KT2440, minimal medium, 55 µM, read-out: Final Backscatter) was 95.5%. The activity at 55 µM ([3]; KT2440, minimal medium, 55 µM, read-out: Growth rate) was 99.4%, the activity at 550 µM ([3]; KT2440, minimal medium, 550 µM, read-out: Final Backscatter) was 96.7% and the activity at 550 µM ([3]; KT2440, minimal medium, 550 µM, read-out: Growth rate) was 101%. The “Lag Phase” value ([3]; complex medium, 55 µM) was 99,1%, the “Lag Phase” value ([3]; complex medium, 550 µM) was 105,0% and the “Lag Phase” value ([3]; minimal medium, 55 µM) was 101,0%. The “Lag Phase” value ([3]; minimal medium, 550 µM) was 98,0%, the growth (Bacillus subtilis 168; 550 μM, minimal media) was “abolished growth” and the activity at 55 µM (Bacillus subtilis 168; Bacillus subtilis, 168, complex medium, 55 µM, read-out: Final Backscatter) was 96.2%. For the same compound, the activity at 55 µM (Bacillus subtilis 168; Bacillus subtilis, 168, complex medium, 55 µM, read-out: Growth rate) was 108%, the activity at 110 µM (Bacillus subtilis 168; Bacillus subtilis, 168, complex medium, 110 µM, read-out: Final Backscatter) was 98% and the activity at 110 µM (Bacillus subtilis 168; Bacillus subtilis, 168, complex medium, 110 µM, read-out: Growth rate) was 108%. The activity at 550 µM (Bacillus subtilis 168; Bacillus subtilis, 168, complex medium, 550 µM, read-out: Final Backscatter) was 76.3%, the activity at 55 µM (Bacillus subtilis 168; Bacillus subtilis, 168, minimal medium, 55 µM, read-out: Final Backscatter) was 96.4% and the activity at 55 µM (Bacillus subtilis 168; Bacillus subtilis, 168, minimal medium, 55 µM, read-out: Growth rate) was 107%. For the same compound, the activity at 110 µM (Bacillus subtilis 168; Bacillus subtilis, 168, minimal medium, 110 µM, read-out: Final Backscatter) was 102%, the activity at 110 µM (Bacillus subtilis 168; Bacillus subtilis, 168, minimal medium, 110 µM, read-out: Growth rate) was 110% and the activity at 550 µM (Bacillus subtilis 168; Bacillus subtilis, 168, minimal medium, 550 µM, read-out: Final Backscatter) was 30.5%. The “Influence on bacterial growth” value (Bacillus subtilis 168; Complex medium) was “fbs↓ lag↑”, the “Influence on bacterial growth” value (Bacillus subtilis 168; Minimal medium) was “no growth (10× IC50)” and the “Lag Phase” value (Bacillus subtilis 168; complex medium, 55 µM) was 102,3%. The “Lag Phase” value (Bacillus subtilis 168; complex medium, 110 µM) was 109,3%, the “Lag Phase” value (Bacillus subtilis 168; complex medium, 550 µM) was 177,1% and the “Lag Phase” value (Bacillus subtilis 168; minimal medium, 55 µM) was 103,5%. The “Lag Phase” value (Bacillus subtilis 168; minimal medium, 110 µM) was 108,5%.
